Values after ≈ are worked out from the molar mass of the structure shown. Where a name gives a salt, the structure may show the parent alone.
Experiments:
[1] = test system: Mycobacterium tuberculosis; test: Antitubercular activity against Mycobacterium tuberculosis; type: functional
[2] = test system: Mycobacterium tuberculosis; type: functional; conditions: H37Ra, 168 h
Mycobacterium avium = type: functional; conditions: 168 h
[3] = test system: Mycobacterium tuberculosis; test: microbe, parasite or virus in culture; conditions: H37Rv, 168 h
Description: Antitubercular activity against Mycobacterium tuberculosis H37Rv after 7 days by REMA resazurin microtiter assay

[4] = test system: Mycobacterium tuberculosis; test: microbe, parasite or virus in culture; conditions: isolate 29/10, 168 h
Description: Antitubercular activity against Mycobacterium tuberculosis isolate 29/10 after 7 days by REMA resazurin microtiter assay

[5] = test system: Mycobacterium tuberculosis; test: microbe, parasite or virus in culture; conditions: isolate 439/11, 168 h
Description: Antitubercular activity against Mycobacterium tuberculosis isolate 439/11 after 7 days by REMA resazurin microtiter assay

[6] = test system: Mycobacterium tuberculosis; test: microbe, parasite or virus in culture; conditions: isolate 756/10, 168 h
Description: Antitubercular activity against Mycobacterium tuberculosis isolate 756/10 after 7 days by REMA resazurin microtiter assay

[7] = test system: Mycobacterium tuberculosis; test: microbe, parasite or virus in culture; conditions: isolate 778/10, 168 h
Description: Antitubercular activity against Mycobacterium tuberculosis isolate 778/10 after 7 days by REMA resazurin microtiter assay

[8] = test system: Mycobacterium tuberculosis; test: microbe, parasite or virus in culture; conditions: isolate 917/10, 168 h
Description: Antitubercular activity against Mycobacterium tuberculosis isolate 917/10 after 7 days by REMA resazurin microtiter assay

[9] = Cytotoxicity against african green monkey Vero 76 cells assessed as reduction in cell viability after 48 to 96 hrs by MTT method; type: cell-based; conditions: chlorocebus sabaeus
[10] = Cytotoxicity against human HMEC1 cells assessed as reduction in cell viability after 72 hrs by MTT method; type: cell-based, HMEC-1
[11] = Cytotoxicity against human MT4 cells assessed as reduction in cell viability after 96 hrs by MTT method; type: cell-based
[12] = Lipophilicity, logD of the compound at pH 7.4; type: physicochemical; conditions: buffer
in vitro [13] = conditions: human, HMEC1 cells
Description: Selectivity index, ratio of CC50 for human HMEC1 cells to MIC for Mycobacterium tuberculosis H37Rv

in vitro [14] = conditions: human, MT4 cells
Description: Selectivity index, ratio of CC50 for human MT4 cells to MIC for Mycobacterium tuberculosis H37Rv

in vitro [15] = conditions: monkey, Vero 76 cells
Description: Selectivity index, ratio of CC50 for african green monkey Vero 76 cells to MIC for Mycobacterium tuberculosis H37Rv

[16] = Half life in human; type: ADME, organism-based; conditions: in vivo

Row | Compound | MIC [2] [µM] | MIC (Mycobacterium avium) | MIC [3] [µM] | MIC [4] [µM] | MIC [5] [µM] | MIC [6] | MIC [7] [µM] | MIC [8] | CC50 at 72 h [10] [µM] | selectivity ratio (in vitro [13]) | further results
1 | C(=C1c2ccccc2-c2ccccc21)[C@@H]1CCCN2CCCC[C@H]12 | – | – | – | – | – | – | – | – | – | – | MIC [1]: 0.156 µg/mL (≈ 0.495 µM)
2 | Cc1ccc(NC[C@@H]2CCCN3CCCC[C@H]23)c2c(=O)c3ccccc3sc12 | – | – | – | – | – | – | – | – | – | – | MIC [1]: 1.25 µg/mL (≈ 3.18 µM)
3 | c1ccc(Nc2cc3nc4ccccc4n(-c4ccccc4)c-3c/c2=N/CCC23CCCN2CCC3)cc1 [listing 1 of 2 here] | 3.52 (≈ 1.76 µg/mL) | 28.1 µM | 0.88 (≈ 0.44 µg/mL) | 0.88 (≈ 0.44 µg/mL) | 0.88 (≈ 0.44 µg/mL) | 28.1 µM | 1.76 (≈ 0.879 µg/mL) | 7.04 µM | – | – | –
4 | Cl.Clc1ccc(Nc2cc3nc4ccccc4n(-c4ccc(Cl)cc4)c-3c/c2=N/CCC23CCCN2CCC3)cc1 | 26 | > 16 µg/mL | > 16 | 0.78 | 6.25 | > 16 µg/mL | 12.5 | > 16 µg/mL | – | – | –
5 | c1ccc(Nc2cc3nc4ccccc4n(-c4ccccc4)c-3c/c2=N/C[C@@H]2CCCN3CCCC[C@H]23)cc1 | 15.6 (≈ 8.01 µg/mL) | – | 15.6 (≈ 8.01 µg/mL) | – | – | – | – | – | – | – | –
6 | Clc1ccc(Nc2cc3nc4ccccc4n(-c4ccc(Cl)cc4)c-3c/c2=N/C[C@@H]2CCCN3CCCC[C@H]23)cc1 | – | 6.87 µM | 0.86 (≈ 0.501 µg/mL) | 0.86 (≈ 0.501 µg/mL) | 0.86 (≈ 0.501 µg/mL) | 0.86 µM | 0.86 (≈ 0.501 µg/mL) | 0.86 µM | 4.7 | 5.46 | CC50 [9]: 68 µM; CC50 at 96 h [11]: 4.5 µM; logD ([12]; read-out: logD): 5.54; selectivity ratio (in vitro [14]): 5.23; selectivity ratio (in vitro [15]): 79.1
7 | c1ccc(Nc2cc3nc4ccccc4n(-c4ccccc4)c-3c/c2=N/CC[C@@H]2CCCN3CCCC[C@H]23)cc1 | 3.79 (≈ 2 µg/mL) | 15.2 µM | 7.58 (≈ 4 µg/mL) | 1.89 (≈ 0.997 µg/mL) | – | – | 1.89 (≈ 0.997 µg/mL) | 1.89 µM | – | – | –
8 | c1ccc(Nc2cc3nc4ccccc4n(-c4ccccc4)c-3c/c2=N/CCC[C@@H]2CCCN3CCCC[C@H]23)cc1 | 7.38 (≈ 4 µg/mL) | – | 7.38 (≈ 4 µg/mL) | – | – | – | – | – | 8.3 | 1.12 | CC50 [9]: 36 µM; CC50 at 96 h [11]: 1.6 µM; selectivity ratio (in vitro [14]): 0.22; selectivity ratio (in vitro [15]): 4.88
9 | c1ccc(Nc2cc3nc4ccccc4n(-c4ccccc4)c-3c/c2=N/C[C@H]2CCCN3CCCC[C@H]23)cc1 | 3.89 (≈ 2 µg/mL) | > 16 µg/mL | 7.79 (≈ 4 µg/mL) | 1.95 (≈ 1 µg/mL) | – | – | 1.95 (≈ 1 µg/mL) | 1.95 µM | – | – | –
10 | Cc1ccc(Nc2cc3nc4ccccc4n(-c4ccc(C)cc4)c-3c/c2=N/C[C@@H]2CCCN3CCCC[C@H]23)cc1.Cl | 26 | 26 µM | 6.5 | 0.81 | 3.25 | > 16 µg/mL | 6.5 | 26 µM | – | – | –
11 | Clc1cccc(C(C[C@@H]2CCCN3CCCC[C@H]23)c2ccccc2)c1 (stereo partly specified) | – | – | – | – | – | – | – | – | – | – | MIC [1]: ≤ 0.1 µg/mL
12 | OC(C[C@@H]1CCCN2CCCC[C@H]12)(c1ccccc1)c1ccc(-c2ccccc2)cc1 (stereo partly specified) | – | – | – | – | – | – | – | – | – | – | MIC [1]: ≤ 1 µg/mL
13 | FC(F)(F)c1cccc(NC[C@@H]2CCCN3CCCC[C@H]23)c1 | – | – | – | – | – | – | – | – | – | – | MIC [1]: 2.5 µg/mL (≈ 8 µM)
14 | Cc1c(N)ccc(NC[C@@H]2CCCN3CCCC[C@H]23)c1C | – | – | – | – | – | – | – | – | – | – | MIC [1]: ≤ 0.5 µg/mL
15 | Clc1ccc(Nc2cc3nc4ccccc4n(-c4ccc(Cl)cc4)c-3c/c2=N/CC[C@@H]2CCCN3CCCC[C@H]23)cc1 | – | 3.35 µM | 0.84 (≈ 0.501 µg/mL) | 0.84 (≈ 0.501 µg/mL) | 0.84 (≈ 0.501 µg/mL) | 0.84 µM | 0.84 (≈ 0.501 µg/mL) | 0.84 µM | 2.5 | 2.98 | CC50 [9]: 9 µM; CC50 at 96 h [11]: 1.2 µM; logD ([12]; read-out: logD): 5.52; selectivity ratio (in vitro [14]): 1.43; selectivity ratio (in vitro [15]): 10.7
16 | c1ccc(Nc2cc3nc4ccccc4n(-c4ccccc4)c-3c/c2=N/CC[C@H]2CCCN3CCCC[C@H]23)cc1 | 7.58 (≈ 4 µg/mL) | – | 7.58 (≈ 4 µg/mL) | – | – | – | – | – | – | – | –
17 | c1ccc(Nc2cc3nc4ccccc4n(-c4ccccc4)c-3c/c2=N/CCC[C@H]2CCCN3CCCC[C@H]23)cc1 | 0.92 (≈ 0.498 µg/mL) | – | 7.38 (≈ 4 µg/mL) | – | – | – | – | – | 5.5 | 0.74 | CC50 [9]: 9.6 µM; CC50 at 96 h [11]: 5.8 µM; selectivity ratio (in vitro [14]): 0.78; selectivity ratio (in vitro [15]): 1.3
18 | Clc1ccc(Nc2cc3nc4ccccc4n(-c4ccc(Cl)cc4)c-3c/c2=N/CC[C@H]2CCCN3CCCC[C@H]23)cc1 | – | 3.35 µM | 0.84 (≈ 0.501 µg/mL) | 0.84 (≈ 0.501 µg/mL) | 0.84 (≈ 0.501 µg/mL) | 0.84 µM | 0.84 (≈ 0.501 µg/mL) | 0.84 µM | 2.3 | 2.74 | CC50 [9]: 9.5 µM; CC50 at 96 h [11]: 1.8 µM; selectivity ratio (in vitro [14]): 2.14; selectivity ratio (in vitro [15]): 11.3
19 | Clc1ccc(Nc2cc3nc4ccccc4n(-c4ccc(Cl)cc4)c-3c/c2=N/CCC[C@H]2CCCN3CCCC[C@H]23)cc1 | – | 3.28 µM | 0.82 (≈ 0.501 µg/mL) | 0.82 (≈ 0.501 µg/mL) | 0.82 (≈ 0.501 µg/mL) | 0.82 µM | 0.82 (≈ 0.501 µg/mL) | 0.82 µM | 3.1 | 3.78 | CC50 [9]: 9 µM; CC50 at 96 h [11]: 1.5 µM; selectivity ratio (in vitro [14]): 1.83; selectivity ratio (in vitro [15]): 11
20 | Cc1ccc(Nc2cc3nc4ccccc4n(-c4ccc(C)cc4)c-3c/c2=N/C[C@@H]2CCCN3CCCC[C@H]23)cc1 | – | – | – | – | – | – | – | – | 2.6 | 0.4 | –
21 | c1ccc(Nc2cc3nc4ccccc4n(-c4ccccc4)c-3c/c2=N/CCC23CCCN2CCC3)cc1 [listing 2 of 2 here] | – | – | – | – | – | – | – | – | 3.2 | 3.64 | –
22 | Clc1ccc(Nc2cc3nc4ccccc4n(-c4ccc(Cl)cc4)c-3c/c2=N/CCC23CCCN2CCC3)cc1 | – | – | – | – | – | – | – | – | 1.5 | < 0.06 | –
23 | CC(C)/N=c1\cc2n(-c3ccc(Cl)cc3)c3ccccc3nc-2cc1Nc1ccc(Cl)cc1 [CLOFAZIMINE] | – | 4.23 µM | 1.06 (≈ 0.502 µg/mL) | 1.06 (≈ 0.502 µg/mL) | 1.06 (≈ 0.502 µg/mL) | 1.06 µM | 1.06 (≈ 0.502 µg/mL) | 1.06 µM | 18.6 | 17.6 | CC50 [9]: > 100 µM; half-life [16]: 70 days; CC50 at 96 h [11]: 6.8 µM; logD [12]: 6.36; selectivity ratio (in vitro [14]): 6.41; selectivity ratio (in vitro [15]): > 94
24 | CC[C@@H](CO)NCCN[C@@H](CC)CO [ETHAMBUTOL] | – | – | 14.4 (≈ 2.95 µg/mL) | 3.61 (≈ 0.738 µg/mL) | 1.8 (≈ 0.368 µg/mL) | 14.4 µM | 7.21 (≈ 1.47 µg/mL) | 14.4 µM | – | – | –
25 | NNC(=O)c1ccncc1 [ISONIAZID] | – | – | 1.82 (≈ 0.25 µg/mL) | 0.91 (≈ 0.125 µg/mL) | 1.82 (≈ 0.25 µg/mL) | 3.65 µM | 0.91 (≈ 0.125 µg/mL) | 1.82 µM | – | – | –
26 | CO[C@H]1/C=C/O[C@@]2(C)Oc3c(C)c(O)c4c(O)c(c(/C=N/N5CCN(C)CC5)c(O)c4c3C2=O)NC(=O)/C(C)=C\C=C\[C@H](C)[C@H](O)[C@@H](C)[C@@H](O)[C@@H](C)[C@H](OC(C)=O)[C@@H]1C [RIFAMPIN] | – | – | 0.3 (≈ 0.247 µg/mL) | 0.15 (≈ 0.123 µg/mL) | 0.08 (≈ 0.0658 µg/mL) | 0.3 µM | 0.15 (≈ 0.123 µg/mL) | 0.61 µM | – | – | –
27 | CN[C@@H]1[C@H](O[C@H]2[C@H](O[C@H]3[C@H](O)[C@@H](O)[C@H](N=C(N)N)[C@@H](O)[C@@H]3N=C(N)N)O[C@@H](C)[C@]2(O)C=O)O[C@@H](CO)[C@H](O)[C@H]1O [STREPTOMYCIN SULFATE] | – | – | 0.69 | 0.69 | 0.17 | 0.69 µM | 0.34 | 0.69 µM | – | – | –
